Assay results taken from paper PMC2753520 (Journal of medicinal chemistry, 2009).

Experiment: PAMPA passive permeability
Type: in vitro ADME
Settings: pH 7.4

Question: Which “Permeability (PAMPA, Pe)” value does the source give for `CCCCCCOc1ccc(C(=O)CCN(C)C)c2ccccc12` [13{1}] here?
Answer: high permeability
